# From patent publication US8450305B2, “Macrocyclic compounds useful as inhibitors of kinases and HSP90” (Universite de Strasbourg, priority 2006, dated 2013)
# Like-named read-outs stand apart in the source and are kept apart here.
# Tests used:
# [1] = biological target: T1, VEGF-R2 (Homo sapiens, UniProt P35968); test: Radiometric protein kinase assay, VEGF-R2; assay type: biochemical; details: 1 μM ATP; read-out: Inhibitory activity (IC50:μM) VEGF-R2
# T1 construct: host or cells: Sf9 insect cells (baculovirus)
# From the text: (§1) All protein kinases were expressed in Sf9 insect cells as human recombinant GST-fusion proteins or His-tagged proteins by means of the baculovirus expression system. Kinases were purified by affinity chromatography using either GSH-agarose (Sigma) or Ni-NTH-agarose (Qiagen). The purity of each kinase was checked by SDS-PAGE/silver staining and the identity of each kinase was verified by western blot analysis with kinase specific antibodies or by mass spectroscopy.
# A radiometric protein kinase assay (^33PanQinase® Activity Assay) was used for measuring the kinase activity of the 24 protein kinases. All kinase assays were performed in 96-well FlashPlates™ from Perkin Elmer (Boston, Mass., USA) in a 50 μl reaction volume. The reaction cocktail was pipetted in 4 steps in the following order: • 20 μl of assay buffer • 5 μl of ATP solution (in H2O) • 5 μl of test compound (in 10% DMSO) • 10 μl of substrate/10 […] of enzyme solution (premixed)
# (§2) The assay for all enzymes contained 60 mM HEPES-NaOH, pH 7.5, 3 mM MgCl2, 3 mM MnCl2, 3 μM Na-orthovanadate, 1.2 mM DTT, 50 μg/ml PEG20000, 1 μM [γ-^33P]-ATP (approx. 5×10^05 cpm per well).
# For the 24 kinase assays, the following amounts of enzyme and substrate were used per well:
# (§3) The reaction cocktails were incubated at 30° C. for 80 minutes. The reaction was stopped with 50 μl of 2% (v/v) H3PO4, plates were aspirated and washed two times with 200 μl of 0.9% (w/v) NaCl or 200 μl H2O. Incorporation of ^33Pi was determined with a microplate scintillation counter (Microbeta Trilux, Wallac).
# (§4) The median value of the counts in column 1 (n=8) of each assay plate was defined as “low control”. This value reflects unspecific binding of radioactivity to the plate in the absence of a protein kinase but in the presence of the substrate. The median value of the counts in column 7 of each assay plate (n=8) was taken as the “high control”, i.e. full activity in the absence of any inhibitor. The difference between high and low control was taken as 100% activity.
# (§5) As part of the data evaluation the low control value from a particular plate was subtracted from the high control value as well as from all 80 “compound values” of the corresponding plate. The residual activity (in %) for each well of a particular plate was calculated by using the following formula: Res. Activity (%)=100×[(cpm of compound−low control)/(high control−low control)]
# The residual activities for each concentration and the compound IC50 values were calculated using Quattro Workflow V2.1.0.0 (Quattro Research GmbH, Munich, Germany; www.quattro-research.com). The model used was “Sigmoidal response (variable slope)” with parameters “top” fixed at 100% and “bottom” at 0%.
# [2] = system: panel of 24 kinase; test: Radiometric protein kinase assay (33PanQinase), panel of 24 kinases; assay type: biochemical, human; details: for inhibition in a panel of 24 kinase: at 10 μM
# From the text: as §1
# A radiometric protein kinase assay (^33PanQinase® Activity Assay) was used for measuring the kinase activity of the 24 protein kinases.
# as §2, §3, §4, §5
# [3] = system: tumor xenograft models; details: in vivo; cited from earlier work
# [4] = cited from earlier work
# [5] = system: ErbB2; test: Degradation of HSP90 client protein ErbB2 in SK-BR3, Western blotting; assay type: cell-based; details: Homo sapiens; for EC50: read-out: EC50, degradation of ErbB2
# From the text: Thus, after 18 hrs treatment with the compounds, the whole cell protein lysates were obtained, protein concentrations were normalized and the concentration of ErbB2 was quantified by Western blotting (C. Chavany et al J. Biol. Chem. 271:4974-4977 (1996)).
# [6] = biological target: T2, HSP90 (Homo sapiens, UniProt P07900); test: HSP90 affinity, competition assay with geldanamycin; assay type: binding
# [7] = biological target: T2, HSP90; details: reported; read-out: inhibitor of HSP90; cited from earlier work
# [8] = system: HCC1954 tumor cells; test: Cytotoxicity, MTS assay, HCC1954; assay type: cell-based; details: Homo sapiens, 72 hours
# Procedure: (§6) Tumor cells were grown as adherent monolayers at 37° C. in a humidified atmosphere (5% CO2, 95% air). The culture medium was RPMI 1640 containing 2 mM L-glutamine (Ref BE12-702F, Cambrex, Verviers, Belgium) and supplemented with 10% fetal bovine serum (Ref DE14-801E, Cambrex). For experimental use, the adherent tumour cells were detached from the culture flask by a 5-minute treatment with trypsin-versene (Ref O2-007E, Cambrex), diluted in Hanks' medium without calcium or magnesium (Ref BE10-543F, Cambrex) and neutralized by addition of complete culture medium. Before use, cells were counted in a hemocytometer and their viability were assessed by 0.25% trypan blue exclusion. Mycoplasma detection was performed using the MycoAlert® Mycoplasma Detection Kit (Ref LT07-318, Cambrex) in accordance with the manufacturer instructions. The MycoAlert®Assay is a selective biochemical test that exploits the activity of mycoplasmal enzymes. The viable mycoplasma are lysed and the enzymes react with the MycoAlert® substrate catalyzing the conversion of ADP to ATP. By measuring the level of ATP in a sample both before and after the addition of the MycoAlert® substrate a ratio can be obtained which is indicative of the presence or absence of mycoplasma. The mycoplasma test was assayed in duplicate from the culture supernatants of the cell lines and compared to negative and positive controls (MycoAlert® Assay Control Set, Ref LT07-518, Cambrex) (Internal Standard Operating Procedure No TEC-007/002). Both HCC1954 and SK-BR-3 tumour cells (5,000 cells per well) were plated in 96-well flat-bottom microtitration plates (Ref 167008, Nunc, Dutscher, Brumath, France) and incubated at 37° C. for 24 hours before treatment in 190 μl of drug-free culture medium supplemented with 10% FBS. Both HCC1954 and SK-BR-3 tumour cell lines were incubated for 72 hours with […], in ¼ dilution steps, of the test substances (ranging from […]) to be tested as well as paclitaxel (ranging from 10^−7 to 10^−12 M). The cells (190 μl) will be incubated in a 200 μl final volume of culture medium supplemented with 10% FBS containing test substances at 37° C. under 5% CO2. One experiment is performed, each concentration being issued from quadruplicate. Control cells are treated with corresponding vehicle alone. At the end of treatments, the cytotoxic activity is evaluated by a MTS assay. […] Like MTT, MTS is bioreduced by cells into a formazan product that is directly soluble in culture medium without processing, unlike MTT.
# (§7) At the end of the cells treatment, 40 μl of a 0.22 μm filtered freshly combined solution of MTS (20 ml at 2 mg/ml, Ref G1111A, Promega, Charbonnières, France) and PMS (1 ml at 0.92 mg/ml, Ref P9625, Sigma) in Dulbecco's Phosphate Buffered Saline (DPBS, Ref 17-513F, Cambrex), were added in each well. Culture plates were incubated for 2 h at 37° C. Absorbency (OD) will be measured at 490 nm in each well using VICTOR^3™ 1420 multilabeled counter (Wallac, PerkinElmer, Courtaboeuf, France).
# [9] = Maximum tolerated dose in healthy CB17/SCID mice; assay type: in vivo
# Procedure: Three healthy CB17/SCID mice were treated with compound 2a-1 at 25 mg/kg, 50 mg/kg and 100 mg/kg once daily for five consecutive days.
# [10] = system: HCC1954 cells; test: Antitumor activity, HCC1954 induced tumors in CB17/SCID mice; assay type: in vivo
# Procedure: The compounds of the invention were evaluated for antitumor activity in mice. Tumors were induced […] in healthy CB17/SCID mice by injecting HCC1954 cells into the right flank of 70 mice. Once the induced tumors were an average size of […], the mice were treated with compound a2-1 at 25 mg/kg, 50 mg/kg and 100 mg/kg. Controls of vehicle alone and Herceptin® at 10 mg/kg were utilized.
# [11] = system: SK-BR-3 tumor cells; test: Cytotoxicity, MTS assay, SK-BR-3; assay type: cell-based; details: Homo sapiens, 72 hours
# Procedure: as §6, §7
# [12] = system: HER-2; details: HER-2 degradation assay; cited from earlier work
# T1 sequence (P35968 20-1356): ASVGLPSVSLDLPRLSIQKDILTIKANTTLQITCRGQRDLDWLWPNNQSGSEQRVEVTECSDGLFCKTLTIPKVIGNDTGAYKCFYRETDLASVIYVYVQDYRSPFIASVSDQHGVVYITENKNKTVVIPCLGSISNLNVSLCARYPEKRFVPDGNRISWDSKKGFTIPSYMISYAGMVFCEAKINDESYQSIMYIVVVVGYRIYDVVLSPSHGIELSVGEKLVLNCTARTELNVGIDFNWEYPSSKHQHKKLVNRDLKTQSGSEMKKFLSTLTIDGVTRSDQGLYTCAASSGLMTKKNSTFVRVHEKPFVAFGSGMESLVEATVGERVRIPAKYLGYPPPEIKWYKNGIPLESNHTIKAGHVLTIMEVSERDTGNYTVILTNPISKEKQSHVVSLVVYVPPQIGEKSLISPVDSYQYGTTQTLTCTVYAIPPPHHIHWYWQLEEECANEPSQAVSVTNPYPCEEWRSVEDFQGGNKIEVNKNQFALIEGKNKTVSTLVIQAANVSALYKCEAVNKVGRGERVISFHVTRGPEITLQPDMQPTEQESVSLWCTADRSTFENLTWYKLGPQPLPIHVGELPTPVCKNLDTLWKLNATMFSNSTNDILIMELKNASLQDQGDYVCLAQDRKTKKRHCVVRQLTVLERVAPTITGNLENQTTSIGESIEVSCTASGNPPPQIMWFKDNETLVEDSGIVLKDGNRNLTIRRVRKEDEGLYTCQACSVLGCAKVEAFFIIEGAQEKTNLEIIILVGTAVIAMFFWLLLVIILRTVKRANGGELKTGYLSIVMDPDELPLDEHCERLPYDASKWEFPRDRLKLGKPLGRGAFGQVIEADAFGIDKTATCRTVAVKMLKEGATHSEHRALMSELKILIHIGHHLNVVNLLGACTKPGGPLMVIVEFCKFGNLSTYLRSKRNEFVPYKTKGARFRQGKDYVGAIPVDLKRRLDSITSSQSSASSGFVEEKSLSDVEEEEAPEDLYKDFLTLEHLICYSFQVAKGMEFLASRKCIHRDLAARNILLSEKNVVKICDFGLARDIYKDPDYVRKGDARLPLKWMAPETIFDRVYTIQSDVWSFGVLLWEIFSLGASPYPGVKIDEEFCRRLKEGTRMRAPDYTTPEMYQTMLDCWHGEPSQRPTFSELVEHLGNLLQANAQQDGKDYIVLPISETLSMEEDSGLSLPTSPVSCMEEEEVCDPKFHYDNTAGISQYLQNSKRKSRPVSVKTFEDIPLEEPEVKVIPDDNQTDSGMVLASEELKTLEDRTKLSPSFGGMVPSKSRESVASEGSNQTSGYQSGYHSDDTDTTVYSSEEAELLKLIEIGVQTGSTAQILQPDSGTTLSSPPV
compound,measurement,setting,value
"C[C@@H]1C[C@H]2O[C@@H]2/C=C\C=C\C(=O)Cc2c(Cl)c(O)cc(O)c2C(=O)O1 [Radicicol, radicicol]",IC50,[1],49 µM
same,IC50 in panel of 24 kinase assays (blank cells; summary in words),[2]; a blank represents an IC50 > 50 μM,no inhibition
same,inhibition in a panel of 24 kinase,[2],no significant activity
same,activity in tumor xenograft models,[3],inactive
same,water solubility,[4],poorly water-soluble
same,IC50,"[5]; SK-BR-3, 18 h, read-out: IC50, degradation of ErbB2",289 nM
C[C@@H]1CC2O[C@@H]2CC/C=C/C(=O)Cc2c(Cl)c(O)cc(O)c2C(=O)O1 (stereo partly shown) [pochonin A],IC50,[6],90 nM
same,inhibition in a panel of 24 kinase,[2],no significant activity
same,IC50,[7],90 nM
O=C1OCC/C=C/CC/C=C/C(=N/OCC(=O)N2CCCCC2)Cc2c(Cl)c(O)cc(O)c21 [2a-1],EC50,[8],320 nM
same,weight loss,[9]; 25 mg/kg once daily for five consecutive days,did not show any weight loss
same,body weight loss,[9]; 50 mg/kg once daily for five consecutive days,"slight, but acceptable body weight loss"
same,body weight loss,[9]; 100 mg/kg once daily for five consecutive days,"slight, but acceptable body weight loss"
same,tumor size,"[10]; 25 mg/kg, 50 mg/kg and 100 mg/kg",dose-dependent reduction in tumor size
same,tumor size compared with Herceptin® at 10 mg/kg,[10]; even at the 25 mg/kg dose for three weeks,superior to those obtained in mice treated with Herceptin®
same,re-growth of tumor after the last treatment,"[10]; mouse, in vivo",did not occur for three to seven days
same,EC50,[11],125 nM
same,EC50,"[5]; SK-BR-3, SK-BR3, 18 hrs treatment, Western blotting",26 nM
CCCCn1c(Cc2cc(OC)c(OC)c(OC)c2)nc2c(N)ncnc21 [PU3],IC50,[12],40000 nM
O=C1OCC/C=C/CC/C=C/C(=N/OCC(=O)N2CCCCC2)Cc2cc(O)cc(O)c21 [2a-13],EC50,[8],220 nM
same,EC50,[11],120 nM
same,EC50,"[5]; SK-BR-3, 18 h",12 nM
